Consider 22 compounds from ChEMBL document CHEMBL5030537 (J Med Chem, 2021).

Structures are written as SMILES. ≈ marks a conversion by molar mass, not a printed value.

For series [1], the target named is T1, Tyrosine-protein kinase BTK (Homo sapiens, UniProt Q06187). As to the kind of experiment: Inhibition of Btk (unknown origin) assessed as inhibition of phosphorylation of FAM-labelled peptide substrate.
The target in series [2] is T1, Tyrosine-protein kinase BTK. In words: Inhibition of human Btk in human Raji cells assessed as PhosY223 measured after 30 mins by cellular HTRF assay. In kind it is cell-based.
Series [3] relates to MDR1. In words: Apparent permeability from apical to basolateral side in LLC-PK1-MDR1 cells. In kind it is ADME, cell-based, Sus scrofa. The following applies: pig.
The target in the next series is PDE5 (Homo sapiens, UniProt O76074). As to the kind of experiment: Inhibition of PDE5 (unknown origin) assessed as remaining activity.
Series [4] is described as follows: Metabolic stability in Sprague-Dawley rat liver hepatocytes assessed as extraction ratio.
Series [5] concerns Salmonella typhimurium. In words: Genotoxicity in Salmonella typhimurium WP2 uvrA in absence of S9 fraction by Ames test. In kind it is toxicity, organism-based. The following applies: salmonella enterica subsp. enterica serovar typhimurium.
The target in the next series is PDE10A2 (Homo sapiens, UniProt Q9Y233). As to the kind of experiment: Inhibition of PDE10A2 (unknown origin) assessed as remaining activity.
Series [6] has as its system Salmonella typhimurium. As to the kind of experiment: Genotoxicity in Salmonella typhimurium WP2 uvrA in presence of S9 fraction by Ames test. In kind it is toxicity, organism-based. The following applies: salmonella enterica subsp. enterica serovar typhimurium.
A short description of series [7]: Thermodynamic solubility of the compound at pH 1.2 in JP1 fluid. In kind it is physicochemical. The following applies: read-out: Therm_solubility.
Series [8] in a line: Toxicity in human peripheral blood lymphocytes in presence of S9 fraction by micronucleus test. In kind it is subcellular, Lymphocyte.
The subject of series [9] is Salmonella typhimurium. As to the kind of experiment: Genotoxicity in Salmonella typhimurium TA98 by Ames test. The following applies: salmonella enterica subsp. enterica serovar typhimurium. In kind it is toxicity, organism-based.
A short description of series [10]: Plasma protein binding in human measured by rapid equilibrium dialysis method. In kind it is ADME, cell-free. The following applies: read-out: PPB (converted).
The nature of series [11]: In vivo stability in Beagle dog liver assessed as extraction ratio at 35 ml/kg.
Series [12] concerns Rattus norvegicus. As to the kind of experiment: Antiarthritic activity against collagen-induced arthritis Lewis rat model assessed as change in paw volume at 0.1 mg/kg, po once daily for 22 days. In kind it is functional. The following applies: time 22 day.
Series [13] concerns Rattus norvegicus. In words: Antiarthritic activity against collagen-induced arthritis po dosed Lewis rat model assessed as inhibition of paw swelling measured after 22 days. The following applies: 528 h, time 22 day. In kind it is organism-based.
The nature of series [14]: Plasma protein binding in Sprague-Dawley rat measured by rapid equilibrium dialysis method. In kind it is ADME, cell-free. The following applies: read-out: PPB (converted).
Series [15] can be described thus: Metabolic stability in mouse liver hepatocytes assessed as extraction ratio.
A short description of series [16]: Stability in PBS buffer measured after 2 hrs. In kind it is physicochemical.
Series [17] is described as follows: Metabolic stability in monkey liver hepatocytes assessed as extraction ratio. The following applies: rhesus monkey.
Series [18] is described as follows: Oral bioavailability in Sprague-Dawley rat. In kind it is ADME, organism-based. The following applies: in vivo.
Another series addresses hERG (KCNH2) (Homo sapiens, UniProt Q12809). As to the kind of experiment: Inhibition of hERG at 13 uM.
Series [19] has as its system Rattus norvegicus. As to the kind of experiment: Antiarthritic activity against collagen-induced arthritis Lewis rat model assessed as change in paw volume at 0.3 mg/kg, po once daily for 22 days. In kind it is functional. The following applies: time 22 day.
Series [20] is described as follows: In vivo inhibition of pBTK in collagen-induced arthritis rat model at 3-30 mg/kg after 12 hrs. In kind it is functional.
Series [21] has as its system Rattus norvegicus. In words: Antiarthritic activity against collagen-induced arthritis Lewis rat model assessed as change in paw volume at 3 mg/kg, po once daily for 22 days. In kind it is functional. The following applies: time 22 day.
Series [22] in a line: Toxicity in dog assessed as adverse effect. More on the design: species or system Canis lupus familiaris. The following applies: in vivo.
Series [23] has as its system Rattus norvegicus. In words: Antiarthritic activity against collagen-induced arthritis Lewis rat model assessed as inhibition of paw swelling treated po once daily for 21 days. In kind it is functional, organism-based. The following applies: dose 0.3-3 mg/kg, time 21.0 day.
Series [24] in a line: Clearance in Beagle dog at 1 mg/kg, iv. In kind it is ADME, organism-based, Canis lupus familiaris. The following applies: in vivo.
Series [25] addresses Proto-oncogene tyrosine-protein kinase Src (Homo sapiens, UniProt P12931). As to the kind of experiment: Inhibition of Src (unknown origin).
Series [26] has as its system Rattus norvegicus. As to the kind of experiment: Antiarthritic activity against collagen-induced arthritis Lewis rat model assessed as change in paw volume at 1 mg/kg, po once daily for 22 days. In kind it is functional. The following applies: time 22 day.
Series [27] in a line: AUC in collagen-induced arthritis rat model at 3 mg/kg, po […] after 22 days. Set-up: dose 3 mg/kg, time 22 day. The following applies: in vivo, 528 h. In kind it is ADME, organism-based.
A short description of series [28]: Metabolic stability in human liver hepatocytes assessed as extraction ratio. The following applies: mouse.
A short description of series [29]: Toxicity in human peripheral blood lymphocytes in absence of S9 fraction by micronucleus test. The following applies: lymphocyte. In kind it is cell-based.
A short description of series [30]: In vivo stability in Sprague-Dawley rat liver assessed as extraction ratio at 70 ml/kg.
Series [31] relates to Salmonella typhimurium. In words: Genotoxicity in Salmonella typhimurium TA1535 by Ames test. In kind it is toxicity, organism-based. The following applies: salmonella enterica subsp. enterica serovar typhimurium.
Series [32] in a line: GSH reactivity in pH 7.4 PBS buffer assessed as intrinsic reactivity by measuring percent remaining measured after 2 hrs. The following applies: read-out: Stability. In kind it is physicochemical.
Series [33] is described as follows: Oral bioavailability in Beagle dog. In kind it is ADME, organism-based, Canis lupus familiaris. The following applies: in vivo.
For series [34], the system named is Salmonella typhimurium. In words: Genotoxicity in Salmonella typhimurium TA1537 by Ames test. In kind it is toxicity, organism-based. The following applies: salmonella enterica subsp. enterica serovar typhimurium.
Series [35] relates to MDR1. In words: Efflux ratio of apparent permeability in LLC-PK1-MDR1 cells. The following applies: pig.
Series [36] is described as follows: Thermodynamic solubility of the compound at pH 6.8 in JP2 fluid. The following applies: read-out: Therm_solubility. In kind it is physicochemical.
A further series has as its system PDE3. In words: Inhibition of PDE3 (unknown origin) assessed as remaining activity. The following applies: human.
The nature of series [37]: Toxicity in rat assessed as adverse effect. The following applies: in vivo.
Series [38] concerns Salmonella typhimurium. In words: Genotoxicity in Salmonella typhimurium […] by Ames test. The following applies: salmonella enterica subsp. enterica serovar typhimurium. In kind it is toxicity, organism-based.
A short description of series [39]: Half life in Beagle dog. In kind it is ADME, Canis lupus familiaris. The following applies: in vivo.
Series [40] has as its target Tyrosine-protein kinase Lck (Homo sapiens, UniProt P06239). As to the kind of experiment: Inhibition of Lck (unknown origin).
Series [41] can be described thus: Thermodynamic solubility of the compound at pH 6.8 in GCDC. In kind it is physicochemical. The following applies: read-out: Therm_solubility.
A short description of series [42]: Metabolic stability in Beagle dog liver hepatocytes assessed as extraction ratio.
Series [43] can be described thus: Half life in Sprague-Dawley rat. In kind it is ADME. The following applies: in vivo.

T1 sequence (Q06187 whole entry): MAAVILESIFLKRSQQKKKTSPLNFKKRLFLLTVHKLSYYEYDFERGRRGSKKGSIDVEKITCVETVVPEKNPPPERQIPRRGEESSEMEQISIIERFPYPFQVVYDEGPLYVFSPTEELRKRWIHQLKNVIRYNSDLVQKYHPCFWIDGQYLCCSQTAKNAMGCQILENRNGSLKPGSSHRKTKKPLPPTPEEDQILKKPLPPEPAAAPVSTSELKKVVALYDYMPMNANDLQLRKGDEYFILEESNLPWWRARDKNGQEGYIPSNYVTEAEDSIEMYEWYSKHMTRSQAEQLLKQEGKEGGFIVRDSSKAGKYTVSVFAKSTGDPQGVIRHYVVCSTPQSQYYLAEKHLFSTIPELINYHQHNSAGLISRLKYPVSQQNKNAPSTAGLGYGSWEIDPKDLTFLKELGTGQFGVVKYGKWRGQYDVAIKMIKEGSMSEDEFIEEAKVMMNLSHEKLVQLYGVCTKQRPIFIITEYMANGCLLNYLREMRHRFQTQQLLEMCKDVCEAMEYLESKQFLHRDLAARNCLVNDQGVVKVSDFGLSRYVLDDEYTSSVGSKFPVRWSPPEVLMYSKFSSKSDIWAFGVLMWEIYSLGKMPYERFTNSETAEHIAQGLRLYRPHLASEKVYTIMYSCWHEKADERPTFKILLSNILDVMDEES
Tyrosine-protein kinase Lck, sequence (P06239 whole entry): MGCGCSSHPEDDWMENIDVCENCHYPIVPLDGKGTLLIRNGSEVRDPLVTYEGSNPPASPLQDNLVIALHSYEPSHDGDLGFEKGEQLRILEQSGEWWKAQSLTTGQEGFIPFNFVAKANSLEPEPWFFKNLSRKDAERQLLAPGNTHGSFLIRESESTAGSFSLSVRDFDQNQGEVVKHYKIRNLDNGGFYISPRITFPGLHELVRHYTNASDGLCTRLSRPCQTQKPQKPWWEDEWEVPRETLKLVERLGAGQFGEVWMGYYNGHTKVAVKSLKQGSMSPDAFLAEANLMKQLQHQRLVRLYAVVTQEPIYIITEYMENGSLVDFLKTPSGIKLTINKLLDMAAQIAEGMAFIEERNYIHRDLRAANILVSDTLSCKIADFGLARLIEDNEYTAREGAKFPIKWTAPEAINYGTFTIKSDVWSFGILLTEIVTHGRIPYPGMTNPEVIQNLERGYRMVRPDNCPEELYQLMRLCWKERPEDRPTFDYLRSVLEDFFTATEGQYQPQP
Proto-oncogene tyrosine-protein kinase Src, sequence (P12931 2-536 limits assumed): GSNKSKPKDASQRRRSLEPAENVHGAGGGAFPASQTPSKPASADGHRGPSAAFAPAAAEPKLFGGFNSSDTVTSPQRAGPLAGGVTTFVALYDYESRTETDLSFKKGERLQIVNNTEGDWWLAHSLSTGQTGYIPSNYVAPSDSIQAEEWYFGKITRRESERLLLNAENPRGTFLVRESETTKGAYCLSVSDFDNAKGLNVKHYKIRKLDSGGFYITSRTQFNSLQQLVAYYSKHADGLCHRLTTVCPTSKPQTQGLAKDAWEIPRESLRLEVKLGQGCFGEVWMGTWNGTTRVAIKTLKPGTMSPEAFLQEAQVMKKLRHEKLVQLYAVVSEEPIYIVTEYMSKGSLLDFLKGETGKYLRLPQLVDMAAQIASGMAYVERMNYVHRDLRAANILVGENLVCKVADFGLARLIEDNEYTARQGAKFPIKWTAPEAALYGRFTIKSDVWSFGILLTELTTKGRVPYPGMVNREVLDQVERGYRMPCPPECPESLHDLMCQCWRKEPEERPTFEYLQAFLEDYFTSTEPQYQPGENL
PDE10A2, sequence (Q9Y233 whole entry): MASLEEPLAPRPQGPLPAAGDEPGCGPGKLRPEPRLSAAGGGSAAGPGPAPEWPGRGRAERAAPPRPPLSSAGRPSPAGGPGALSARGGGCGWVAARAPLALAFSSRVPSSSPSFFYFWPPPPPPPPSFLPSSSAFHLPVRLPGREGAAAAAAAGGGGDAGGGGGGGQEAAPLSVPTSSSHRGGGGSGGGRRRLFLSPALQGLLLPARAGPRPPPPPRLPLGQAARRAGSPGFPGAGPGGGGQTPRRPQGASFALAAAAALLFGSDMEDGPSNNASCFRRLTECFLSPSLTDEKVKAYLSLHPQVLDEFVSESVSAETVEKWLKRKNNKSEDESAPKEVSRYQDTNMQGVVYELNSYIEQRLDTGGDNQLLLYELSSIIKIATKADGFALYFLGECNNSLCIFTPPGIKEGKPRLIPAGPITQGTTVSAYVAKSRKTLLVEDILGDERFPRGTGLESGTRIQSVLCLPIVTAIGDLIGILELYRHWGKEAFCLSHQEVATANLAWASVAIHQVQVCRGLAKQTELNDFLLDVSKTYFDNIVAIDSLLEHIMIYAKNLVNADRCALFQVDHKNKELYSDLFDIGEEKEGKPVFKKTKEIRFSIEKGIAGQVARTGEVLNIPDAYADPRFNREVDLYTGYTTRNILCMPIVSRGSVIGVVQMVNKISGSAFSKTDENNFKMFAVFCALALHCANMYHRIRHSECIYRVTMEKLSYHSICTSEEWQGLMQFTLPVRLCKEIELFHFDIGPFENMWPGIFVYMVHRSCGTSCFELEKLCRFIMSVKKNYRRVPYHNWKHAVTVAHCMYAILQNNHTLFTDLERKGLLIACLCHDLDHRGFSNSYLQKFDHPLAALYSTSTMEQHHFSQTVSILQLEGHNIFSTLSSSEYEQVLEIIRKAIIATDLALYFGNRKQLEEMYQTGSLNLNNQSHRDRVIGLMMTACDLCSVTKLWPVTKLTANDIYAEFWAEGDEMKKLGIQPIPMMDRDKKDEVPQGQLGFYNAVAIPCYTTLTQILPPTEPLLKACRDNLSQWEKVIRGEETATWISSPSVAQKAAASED
hERG (KCNH2), sequence (Q12809 whole entry): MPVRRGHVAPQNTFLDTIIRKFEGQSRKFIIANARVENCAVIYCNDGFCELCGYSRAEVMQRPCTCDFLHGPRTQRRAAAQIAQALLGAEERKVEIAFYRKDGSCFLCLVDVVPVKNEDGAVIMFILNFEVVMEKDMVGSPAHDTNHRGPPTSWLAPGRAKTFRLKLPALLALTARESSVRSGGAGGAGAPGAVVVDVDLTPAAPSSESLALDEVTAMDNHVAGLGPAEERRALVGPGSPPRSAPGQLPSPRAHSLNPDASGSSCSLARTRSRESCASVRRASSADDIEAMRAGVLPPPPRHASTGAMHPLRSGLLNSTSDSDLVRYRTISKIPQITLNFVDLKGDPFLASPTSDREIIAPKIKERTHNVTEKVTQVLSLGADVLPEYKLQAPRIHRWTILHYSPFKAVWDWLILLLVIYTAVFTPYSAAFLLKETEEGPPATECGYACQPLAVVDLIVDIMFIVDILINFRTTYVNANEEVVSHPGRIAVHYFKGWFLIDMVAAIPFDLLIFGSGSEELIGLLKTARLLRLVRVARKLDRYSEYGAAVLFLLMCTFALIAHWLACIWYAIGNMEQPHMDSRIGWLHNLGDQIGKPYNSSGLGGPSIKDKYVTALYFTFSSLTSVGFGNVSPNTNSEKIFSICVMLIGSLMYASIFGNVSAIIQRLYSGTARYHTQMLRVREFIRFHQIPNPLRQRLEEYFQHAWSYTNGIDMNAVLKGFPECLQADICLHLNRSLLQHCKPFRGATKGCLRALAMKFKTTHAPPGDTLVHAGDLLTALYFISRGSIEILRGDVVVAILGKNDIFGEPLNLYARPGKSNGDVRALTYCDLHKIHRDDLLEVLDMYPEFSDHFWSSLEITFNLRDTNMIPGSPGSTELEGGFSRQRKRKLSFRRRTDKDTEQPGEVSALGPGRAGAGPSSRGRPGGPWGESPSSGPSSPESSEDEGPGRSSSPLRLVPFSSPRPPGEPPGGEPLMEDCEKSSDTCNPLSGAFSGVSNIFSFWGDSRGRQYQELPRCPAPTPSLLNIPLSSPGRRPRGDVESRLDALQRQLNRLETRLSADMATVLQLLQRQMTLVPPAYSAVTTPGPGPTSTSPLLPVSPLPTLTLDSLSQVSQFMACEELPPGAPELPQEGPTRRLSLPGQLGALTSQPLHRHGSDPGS

For `NC(=O)c1nnc2ccccc2c1N`, the IC50 in series [1] was 3160 nM.
`CC(C)Nc1nc(-c2n[nH]c(=O)[nH]2)cc2ccccc12`: in [1], the IC50 was 20 nM. In addition, the EC50 in [2] was 158 nM.
In the same order, the values of `CC(C)Oc1nc(-c2n[nH]c(=O)[nH]2)cc2ccccc12` are 10 nM and 100 nM.
Take `CCOc1nc(-c2n[nH]c(=O)[nH]2)cc2ccccc12`: the IC50 in series [1] was 50.1 nM.
For the compound `COc1nc2ccccc2cc1-c1n[nH]c(=O)[nH]1`, the concentration for half-maximal inhibition (IC50) in [1] is 3160 nM.
Same read-out and setting: the value for `Cc1cc(OC(C)C)nc(-c2n[nH]c(=O)[nH]2)c1` was 251 nM; that for `O=c1[nH]nc(-c2ccccn2)[nH]1` was 316000 nM.
Regarding `CCNc1nc(-c2n[nH]c(=O)[nH]2)cc2ccccc12`, the half-inhibitory concentration (IC50) in series [1] was 100 nM. Also, the EC50 in series [2] was 794 nM.
For the compound `O=c1[nH]nc(-c2nc3ccccc3[nH]2)[nH]1`, the IC50 in series [1] is 10000 nM.
As for `CCOc1ncccc1-c1n[nH]c(=O)[nH]1`, in series [1], the IC50 is greater than 100000 nM.
Take `CCOc1cccc(-c2n[nH]c(=O)[nH]2)n1`: the IC50 in series [1] was 6310 nM.
Same read-out and setting: the value for `COc1ncccc1-c1n[nH]c(=O)[nH]1` was 100000 nM.
For the compound `CCCOc1nc(-c2n[nH]c(=O)[nH]2)cc2ccccc12`, in series [1], the IC50 was 25.1 nM. Also, the concentration giving a half-maximal response (EC50) in [2] was 398 nM.
`CC(=O)N1CC[C@H](Oc2nc(-c3n[nH]c(=O)[nH]3)cc3ccccc23)C1`: the IC50 in series [1] is 31.6 nM.
The same measure, in the same setting: then `O=c1[nH]nc(-c2cccnc2)[nH]1`, with 126000 nM; and `CC(C)COc1cccc(-c2n[nH]c(=O)[nH]2)n1`, with 1580 nM.
Regarding `O=c1[nH]nc(-c2cc3ccccc3cn2)[nH]1`, the IC50 in series [1] is 5010 nM.
As to `C=CC(=O)N1CC[C@@H](Oc2nc(-c3n[nH]c(=O)[nH]3)cc3ccccc23)C1`, in series [1], the concentration for half-maximal inhibition (IC50) was 31.6 nM. In addition, the EC50 in series [2] is 501 nM.
For `COc1cccc(-c2n[nH]c(=O)[nH]2)n1`, the IC50 in [1] was 31600 nM.
For `COc1nc(-c2n[nH]c(=O)[nH]2)cc2ccccc12`, the IC50 in series [1] was 398 nM.
Still for that read-out and setting: then `Oc1n[nH]c(-c2ccccc2)n1`, with 501000 nM.
With `C=CC(=O)N1CC[C@H](Oc2nc(-c3n[nH]c(=O)[nH]3)cc3ccccc23)C1` [TAK-020], the Papp A→B with MDR1 [3] turned out to be 1.89 ×10⁻⁶ cm/s. The Activity on PDE5 is 67%; in the series with Salmonella typhimurium [5], “Non-Toxic”; on PDE10A2 it was 59%; with Salmonella typhimurium [6], “Non-Toxic”; in series [8] it was “Non-Toxic”; with Salmonella typhimurium [9], “Non-Toxic”. For the same compound, the Activity in the series on Rattus norvegicus [12] is recorded as 21%; in the series on Rattus norvegicus [19], 75%; in the series with Rattus norvegicus [21], 240%; in [22], “Non-Toxic”; in the series on Rattus norvegicus [26], 173%; in [29], “Non-Toxic”. In addition, the Activity result is “Non-Toxic” in the series with Salmonella typhimurium [31]; “Non-Toxic” with Salmonella typhimurium [34]; 96% in the series with PDE3; “Non-Toxic” in series [37]; “Non-Toxic” in the series with Salmonella typhimurium [38]. Besides, the hepatic extraction ratio in [4] was 0.31; in series [11], 0.81; in [15], 0.62; in series [17], 0.37; in [28] it was 0.21; in series [30], greater than 0.9. Moreover, the hepatic extraction ratio in [42] was 0.48. Further, the solubility thermodynamic is less than 0.1 µg/mL in [7], less than 1.1 µg/mL in [36] and 6.8 µg/mL (≈ 19.4 µM) in series [41]. Besides, the fraction unbound is 0.113 in series [10] and 0.098 in series [14]. Also, the ED50 in the series on Rattus norvegicus [13] came out at 0.17 mg/kg. Also, in [16], the Stability result is recorded as “Stable”. Besides, the F in [18] was determined as 6%. For the same compound, the inhibition at 13 µM against hERG (KCNH2) is 18%. Also, in series [20], the inhibition in vivo at 30 mg/kg was greater than 50%. In the series on Rattus norvegicus [23], the inhibition result is “Dose-Dependent Effect”. The compound further showed a clearance in series [24] of 28.5 mL/min/kg. Further, the results for the IC50 in series [25], in series [1] and in series [40] were 631 nM, less than 2 nM and 1000 nM, respectively. Also, the AUC in [27] was determined as 4.2 ng·h/mL. In series [32], the remaining at 2 h was determined as 75%. Also, the bioavailability in series [33] stood at 6.5%. In addition, the EC50 in series [2] is 1.26 nM. Besides, the efflux ratio with MDR1 [35] amounted to 10.8. In addition, the half-life in [39] was 3 h; in series [43], 0.7 h.
